From ChEMBL document CHEMBL1909540, “Synthesis and antimycobacterial evaluation of 3a,4-dihydro-3H-indeno [1,2-c] pyrazole-2-carboxamide analogues” (Eur J Med Chem, 2011)
Values after ≈ are worked out from the molar mass of the structure shown.

Experiments:
[1] = tested on: Mycobacterium tuberculosis; assay: Antitubercular activity against multidrug-resistant Mycobacterium tuberculosis by two fold serial dilution method; format: functional
[2] = Safety index, ratio of IC50 for african green monkey Vero cells to MIC for multidrug-resistant Mycobacterium tuberculosis; format: toxicity, cell-based

## COc1cc2c(cc1OC)C1=NN(C(=O)Nc3ccc([N+](=O)[O-])cc3)C(c3ccncc3)C1C2 (stereo not given)
[1]
  MIC: > 13.6 µM

## COc1cc2c(cc1OC)C1=NN(C(=O)Nc3ccc(Cl)cc3)C(c3ccncc3)C1C2 (stereo not given)
[1]
  MIC: 10 µM (≈ 4.49 µg/mL)

## COc1cc2c(cc1OC)C1=NN(C(=O)Nc3ccc(Cl)cc3)C(c3ccccc3Cl)C1C2 (stereo not given)
[1]
  MIC: > 13.9 µM

## COc1cc2c(cc1OC)C1=NN(C(=O)Nc3ccc(Cl)cc3)C(c3ccc(F)cc3)C1C2 (stereo not given)
[1]
  MIC: 3.32 µM (≈ 1.55 µg/mL)
[2]
  selectivity ratio: 40.3

## COc1ccc(C2C3Cc4cc(OC)c(OC)cc4C3=NN2C(=O)Nc2ccc(Cl)cc2)cc1OC (stereo not given)
[1]
  MIC: > 9.8 µM

## COc1cc2c(cc1OC)C1=NN(C(=O)Nc3ccc(Cl)cc3)C(c3ccccc3)C1C2 (stereo not given)
[1]
  MIC: 10.5 µM (≈ 4.69 µg/mL)

## COc1ccc(C2C3Cc4cc(OC)c(OC)cc4C3=NN2C(=O)Nc2ccc(Cl)cc2)cc1 (stereo not given)
[1]
  MIC: > 10.5 µM

## COc1cc2c(cc1OC)C1=NN(C(=O)Nc3ccc([N+](=O)[O-])cc3)C(c3ccccc3Cl)C1C2 (stereo not given)
[1]
  MIC: > 12.7 µM

## COc1cc2c(cc1OC)C1=NN(C(=O)Nc3ccc([N+](=O)[O-])cc3)C(c3ccc(F)cc3)C1C2 (stereo not given)
[1]
  MIC: 6.32 µM (≈ 3.01 µg/mL)

## COc1ccc(C2C3Cc4cc(OC)c(OC)cc4C3=NN2C(=O)Nc2ccc([N+](=O)[O-])cc2)cc1OC (stereo not given)
[1]
  MIC: > 12.1 µM

## COc1cc2c(cc1OC)C1=NN(C(=O)Nc3ccc([N+](=O)[O-])cc3)C(c3ccccc3)C1C2 (stereo not given)
[1]
  MIC: 13.6 µM (≈ 6.24 µg/mL)

## COc1ccc(C2C3Cc4cc(OC)c(OC)cc4C3=NN2C(=O)Nc2ccc([N+](=O)[O-])cc2)cc1 (stereo not given)
[1]
  MIC: > 12.8 µM

## COc1cc2c(cc1OC)C1=NN(C(N)=O)C(c3ccncc3)C1C2 (stereo not given)
[1]
  MIC: > 11.8 µM

## COc1cc2c(cc1OC)C1=NN(C(N)=O)C(c3ccccc3Cl)C1C2 (stereo not given)
[1]
  MIC: > 10.8 µM

## COc1cc2c(cc1OC)C1=NN(C(N)=O)C(c3ccc(F)cc3)C1C2 (stereo not given)
[1]
  MIC: 6.62 µM (≈ 2.35 µg/mL)

## COc1ccc(C2C3Cc4cc(OC)c(OC)cc4C3=NN2C(N)=O)cc1OC (stereo not given)
[1]
  MIC: > 10.1 µM

## COc1cc2c(cc1OC)C1=NN(C(N)=O)C(c3ccccc3)C1C2 (stereo not given)
[1]
  MIC: > 11.8 µM

## COc1ccc(C2C3Cc4cc(OC)c(OC)cc4C3=NN2C(N)=O)cc1 (stereo not given)
[1]
  MIC: > 10.9 µM

## NNC(=O)c1ccncc1 [ISONIAZID]
[1]
  MIC: 45.6 µM (≈ 6.25 µg/mL)
